The test system of the test is HBsAg. The test is described as follows: HBsAg assay (chemiluminescence immunoassay of secreted HBsAg). Particulars: Hepatitis B virus, HepG2.2.15, HBsAg secretion, HepG2.2.15 cells, CLIA of culture supernatant. Format: cell-based, HBV. As to the method: HepG2.2.15 cells (Acs et al. Proc Natl Acad Sci USA, 84, (1987), 4641-4), a constitutively HBV-expressing cell line were cultured in DMEM+Glutamax-I medium (Invitrogen, Carlsbad, Calif., USA), supplemented with 10% fetal bovine serum (Invitrogen) and G418 (Invitrogen) at a final concentration of 200 mg/L and maintained in 5% CO2 at 37° C.
HepG2.2.15 cells were seeded in duplicate into white, 96-well plates at 1.5×10^4 cells/well. The cells were treated with a three-fold serial dilution series of the compounds in DMSO. The final DMSO concentration in all wells was 1% and DMSO was used as no drug control.
The HBsAg chemiluminescence immunoassay (CLIA) kit (Autobio Diagnostics Co., Zhengzhou, China, Catalog number: CL0310-2) was used to measure the levels of secreted HBV antigens semi-quantitatively. For the detection 50 μL/well culture supernatant was used and HBsAg was quantified using HBsAg chemiluminescence immunoassay (CLIA) kit (Autobio Diagnostics Co., Zhengzhou, China, Catalog number: CL0310-2), 50 μL of the supernatant was transferred to the CLIA assay plate and 50 μL of enzyme conjugate reagent was added into each well. The plates were sealed and gently agitated for 1 hour at room temperature. The supernatant-enzyme-mixture was discarded and wells were washed 6 times with 300 μL of PBS.
The residual liquid was removed by plating the CLIA plate right side down on absorbent tissue paper. 25 μL of substrates A and B were added to each well. Luminance was measured using a luminometer (Mithras LB 940 Multimode Microplate Reader) after 10 minutes incubation. Dose-response curves were generated and the IC50 value was extrapolated by using the E-WorkBook Suite (ID Business Solutions Ltd., Guildford, UK). The IC50 was defined as the compound concentration (or conditioned media log dilution) at which HBsAg secretion was reduced by 50% compared to the no drug control.
The compounds according to formula I were tested for their capacity to inhibit HBsAg as described herein.

For `CC1c2cnc(-c3ncccn3)nc2CCN1c1cc(N2CCC(C(N)=O)CC2)cc(F)n1` (stereo not drawn) [Example 56, 1-[2-fluoro-6-(5-methyl-2-pyrimidin-2-yl-7,8-dihydro-5H-pyrido[4,3-d]pyrimidin-6-yl)-4-pyridyl]piperidine-4-carboxamide], the IC50 (as a rule, the concentration at which inhibition is half-maximal) was found to be 37 nM.
Consider `CC1c2cnc(-c3ncccn3)nc2CCN1c1cc(F)cc(N2CCN(S(C)(=O)=O)CC2)n1` (stereo not drawn) [Example 57, 6-[4-fluoro-6-(4-methylsulfonylpiperazin-1-yl)-2-pyridyl]-5-methyl-2-pyrimidin-2-yl-7,8-dihydro-5H-pyrido[4,3-d]pyrimidine], for which it took 28 nM to reach half-maximal inhibition (IC50).
Take `CC1c2cnc(-c3ncccn3)nc2CCN1c1cc(N2CCN(S(C)(=O)=O)CC2)cc(F)n1` (stereo not drawn) [Example 58, 6-[6-fluoro-4-(4-methylsulfonylpiperazin-1-yl)-2-pyridyl]-5-methyl-2-pyrimidin-2-yl-7,8-dihydro-5H-pyrido[4,3-d]pyrimidine]: half-maximal inhibition (IC50) required 15 nM.
The same measure for `CC1c2cnc(-c3ccccn3)nc2CCN1c1cc(F)cc(N2CCC(O)C2)n1` (stereo not drawn) [Example 59, 1-[4-fluoro-6-[5-methyl-2-(2-pyridyl)-7,8-dihydro-5H-pyrido[4,3-d]pyrimidin-6-yl]-2-pyridyl]pyrrolidin-3-ol]: 26 nM; for `CC1c2cnc(-c3ccccn3)nc2CCN1c1cc(N2CCC(O)C2)cc(F)n1` (stereo not drawn) [Example 60, 1-[2-fluoro-6-[5-methyl-2-(2-pyridyl)-7,8-dihydro-5H-pyrido[4,3-d]pyrimidin-6-yl]-4-pyridyl]pyrrolidin-3-ol]: 23 nM.
`CC1c2cnc(-c3ccccn3)nc2CCN1c1cc(F)cc(N2CCC(C(N)=O)C2)n1` (stereo not drawn) [Example 61, 1-[4-fluoro-6-[5-methyl-2-(2-pyridyl)-7,8-dihydro-5H-pyrido[4,3-d]pyrimidin-6-yl]-2-pyridyl]pyrrolidine-3-carboxamide] gave an IC50 of 22 nM.
To `CC1c2cnc(-c3ccccn3)nc2CCN1c1cc(N2CCC(C(N)=O)C2)cc(F)n1` (stereo not drawn) [Example 62, 1-[2-fluoro-6-[5-methyl-2-(2-pyridyl)-7,8-dihydro-5H-pyrido[4,3-d]pyrimidin-6-yl]-4-pyridyl]pyrrolidine-3-carboxamide] belongs 35 nM; to `CC1c2cnc(-c3ncccn3)nc2CCN1c1cc(F)cc(N2CC(C(=O)NS(C)(=O)=O)C2)n1` (stereo not drawn) [Example 63, 1-[4-fluoro-6-(5-methyl-2-pyrimidin-2-yl-7,8-dihydro-5H-pyrido[4,3-d]pyrimidin-6-yl)-2-pyridyl]-N-methylsulfonyl-azetidine-3-carboxamide], 5420 nM; to `CC1c2cnc(-c3ncccn3)nc2CCN1c1cc(N2CC(C(=O)NS(C)(=O)=O)C2)cc(F)n1` (stereo not drawn) [Example 64, 1-[2-fluoro-6-(5-methyl-2-pyrimidin-2-yl-7,8-dihydro-5H-pyrido[4,3-d]pyrimidin-6-yl)-4-pyridyl]-N-methylsulfonyl-azetidine-3-carboxamide], 2380 nM.
For `CC1c2cnc(-c3ncccn3)nc2CCN1c1cc(F)cc(N2CCC(C(=O)NS(C)(=O)=O)CC2)n1` (stereo not drawn) [Example 65, 1-[4-fluoro-6-(5-methyl-2-pyrimidin-2-yl-7,8-dihydro-5H-pyrido[4,3-d]pyrimidin-6-yl)-2-pyridyl]-N-methylsulfonyl-piperidine-4-carboxamide], half-maximal inhibition (IC50) was put at 4440 nM.
`CC1c2cnc(-c3ncccn3)nc2CCN1c1cc(N2CCC(C(=O)NS(C)(=O)=O)CC2)cc(F)n1` (stereo not drawn) [Example 66, 1-[2-fluoro-6-(5-methyl-2-pyrimidin-2-yl-7,8-dihydro-5H-pyrido[4,3-d]pyrimidin-6-yl)-4-pyridyl]-N-methylsulfonyl-piperidine-4-carboxamide] yielded an IC50 of 1940 nM.
Consider `CC1c2cnc(-c3ccccn3)nc2CCN1c1cc(F)cc(N2CCC(C(=O)O)C2)n1` (stereo not drawn) [Example 67, 1-[4-fluoro-6-[5-methyl-2-(2-pyridyl)-7,8-dihydro-5H-pyrido[4,3-d]pyrimidin-6-yl]-2-pyridyl]pyrrolidine-3-carboxylic acid], for which the IC50 was determined as 532 nM.

These data come from patent US11104674B2 (Hoffmann-La Roche Inc., priority 2016, dated 2021).
